How the values were obtained:
rat hippocampal neurons = assay: Cell death assay (TUNEL) after axonal Aβ1-42/Aβ42 treatment in microfluidic chambers; format: cell-based; conditions: Aβ oligomers 36 hours, nelfinavir in the last 24 hours, 10/15 μM nelfinavir
Method: (§1) Hippocampi were dissected from embryonic day (E) 16-18 rat embryos obtained from pregnant Sprague-Dawley dams (Envigo). All animal procedures were approved by the Institutional Animal Care and Use Committee at Columbia University. Cell dissociation was performed using TripLE Express. Neurons (50,000-60,000 per microfluidic chamber) were plated on 0.1 mg ml^-1 poly-D-lysine (Millipore Sigma) and 2 μg ml^-1 laminin (Bio-Techne) coated substrates and grown in Neurobasal supplemented with 10% fetal bovine serum, 2 mM L-glutamine, 1 mM sodium pyruvate, and antibiotics (50 U ml^-1 penicillin-streptomycin). Tripartite microfluidic chambers were produced with Dow Corning Sylgard 184 Silicone Encapsulant Clear Kit (10:1 mix ratio; Ellsworth Adhesives) cured at […] for at least 4 hours following published protocols (Park et al. 2006; Desai et al. 2009). Chamber design incorporated two sets of 200-μm-long microgroove barriers to exclude crossing of cell bodies and dendrites (Taylor et al. 2005; […] et al. 2009). After 24 hours, medium was changed to Neurobasal containing 1×B27 and 2 mM L-glutamine. Subsequent medium changes (half volumes) were performed at DIV4 and thereafter every 3-5 days. To prevent glial cell proliferation, medium changes included 5-flurodeoxyuridine and uridine (final concentration […]; Millipore Sigma) after DIV4. […]

[1] = test system: CREB3L2-ATF4 heterodimers; assay: Proximity ligation assay (PLA) of axonal CREB3L2-ATF4 heterodimers; format: cell-based, rat; conditions: axons treated with Aβ oligomers for 36 hours plus nelfinavir
Method: as §1

Cc1c(O)cccc1C(=O)N[C@@H](CSc1ccccc1)[C@H](O)CN1C[C@H]2CCCC[C@H]2C[C@H]1C(=O)NC(C)(C)C [nelfinavir]
retrograde degeneration response (TUNEL) triggered by local Aβ1-42/Aβ42 stimuli (rat hippocampal neurons): completely rescued
CREB3L2-ATF4 complexes/heterodimers in axons (PLA) [1]: caused the accumulation

Source: patent US20250027085A1, “COMPOSITIONS AND METHODS FOR TREATING ALZHEIMER'S DISEASE UTILIZING A TRANSCRIPTIONAL MASTER REGULATOR OF THE RETROMER COMPLEX” (THE TRUSTEES OF COLUMBIA UNIVERSITY IN THE CITY OF NEW YORK, priority 2022, published 2025)
